Laboratory results taken from ChEMBL document CHEMBL1150976, “The selectivity of protein kinase inhibitors: a further update” (Biochem J, 2007).

Key:
[1] = molecular target: T1, Serine/threonine-protein kinase BRSK2 (Homo sapiens) (UniProt Q8IWQ3); assay: Percentage BRSK2 activity remaining in the presence of 2uM inhibitor
T1 sequence (whole entry): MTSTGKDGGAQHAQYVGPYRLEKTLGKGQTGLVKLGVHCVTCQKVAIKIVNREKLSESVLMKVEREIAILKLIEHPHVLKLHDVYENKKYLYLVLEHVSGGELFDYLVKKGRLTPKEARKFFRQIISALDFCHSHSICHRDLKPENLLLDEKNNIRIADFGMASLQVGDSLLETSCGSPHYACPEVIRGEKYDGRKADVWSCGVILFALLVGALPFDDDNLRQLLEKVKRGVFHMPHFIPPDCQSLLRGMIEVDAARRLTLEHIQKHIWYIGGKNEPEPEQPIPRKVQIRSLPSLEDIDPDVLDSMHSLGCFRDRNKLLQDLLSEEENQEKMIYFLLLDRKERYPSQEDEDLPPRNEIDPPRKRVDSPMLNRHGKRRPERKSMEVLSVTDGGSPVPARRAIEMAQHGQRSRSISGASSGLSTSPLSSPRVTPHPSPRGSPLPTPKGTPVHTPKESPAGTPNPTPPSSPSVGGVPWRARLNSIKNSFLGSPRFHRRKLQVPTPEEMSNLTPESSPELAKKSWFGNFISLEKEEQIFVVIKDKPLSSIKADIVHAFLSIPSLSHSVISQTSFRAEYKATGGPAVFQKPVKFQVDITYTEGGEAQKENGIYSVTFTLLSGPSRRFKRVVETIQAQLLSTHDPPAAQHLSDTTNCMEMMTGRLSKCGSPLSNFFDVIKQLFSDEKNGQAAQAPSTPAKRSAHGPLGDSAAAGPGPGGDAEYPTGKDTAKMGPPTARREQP

[2] = molecular target: Protein kinase C alpha type (Homo sapiens) (UniProt P17252); assay: Percentage PKCalpha activity remaining in the presence of 2uM inhibitor
[3] = molecular target: T2, Serine/threonine-protein kinase Nek2 (Homo sapiens) (UniProt P51955); assay: Percentage NEK2a activity remaining in the presence of 3uM inhibitor
T2 sequence (whole entry): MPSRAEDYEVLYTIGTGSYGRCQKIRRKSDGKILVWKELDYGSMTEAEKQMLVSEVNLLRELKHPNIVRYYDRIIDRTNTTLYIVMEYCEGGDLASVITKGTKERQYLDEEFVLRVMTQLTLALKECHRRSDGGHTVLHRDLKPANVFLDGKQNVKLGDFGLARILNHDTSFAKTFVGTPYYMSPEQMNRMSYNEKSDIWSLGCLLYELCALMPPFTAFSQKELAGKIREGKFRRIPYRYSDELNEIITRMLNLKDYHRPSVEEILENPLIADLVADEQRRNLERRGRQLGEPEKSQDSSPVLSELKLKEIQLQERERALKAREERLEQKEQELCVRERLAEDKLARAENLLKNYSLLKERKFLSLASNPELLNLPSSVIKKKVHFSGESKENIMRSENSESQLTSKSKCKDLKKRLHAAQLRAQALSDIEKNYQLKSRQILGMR

[4] = molecular target: T3, Inhibitor of nuclear factor kappa-B kinase subunit beta (Homo sapiens) (UniProt O14920); assay: Percentage IKK-beta activity remaining in the presence of 3uM inhibitor
T3 sequence (whole entry): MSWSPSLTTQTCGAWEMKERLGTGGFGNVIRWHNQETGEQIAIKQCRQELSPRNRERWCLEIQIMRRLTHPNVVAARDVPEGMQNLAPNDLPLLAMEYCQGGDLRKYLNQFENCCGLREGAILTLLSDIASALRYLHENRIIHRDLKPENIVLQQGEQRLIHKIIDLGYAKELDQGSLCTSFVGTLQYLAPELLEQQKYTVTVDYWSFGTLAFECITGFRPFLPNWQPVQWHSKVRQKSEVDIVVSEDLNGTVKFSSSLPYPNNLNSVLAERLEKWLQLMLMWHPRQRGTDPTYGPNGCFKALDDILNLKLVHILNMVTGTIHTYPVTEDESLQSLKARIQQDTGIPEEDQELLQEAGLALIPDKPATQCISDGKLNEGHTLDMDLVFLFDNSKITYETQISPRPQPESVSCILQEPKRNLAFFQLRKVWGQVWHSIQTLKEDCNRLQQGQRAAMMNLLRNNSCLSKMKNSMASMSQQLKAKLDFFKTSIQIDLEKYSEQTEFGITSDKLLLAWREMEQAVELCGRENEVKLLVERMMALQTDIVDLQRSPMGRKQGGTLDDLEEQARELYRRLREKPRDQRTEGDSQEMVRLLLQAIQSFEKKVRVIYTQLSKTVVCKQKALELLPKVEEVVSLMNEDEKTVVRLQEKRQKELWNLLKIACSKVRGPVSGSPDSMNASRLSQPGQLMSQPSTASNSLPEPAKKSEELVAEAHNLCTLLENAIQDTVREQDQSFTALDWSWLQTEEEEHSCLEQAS

[5] = molecular target: T4, Serine/threonine-protein kinase D1 (Homo sapiens) (UniProt Q15139); assay: Percentage PKD1 activity remaining in the presence of 3uM inhibitor
T4 sequence (whole entry): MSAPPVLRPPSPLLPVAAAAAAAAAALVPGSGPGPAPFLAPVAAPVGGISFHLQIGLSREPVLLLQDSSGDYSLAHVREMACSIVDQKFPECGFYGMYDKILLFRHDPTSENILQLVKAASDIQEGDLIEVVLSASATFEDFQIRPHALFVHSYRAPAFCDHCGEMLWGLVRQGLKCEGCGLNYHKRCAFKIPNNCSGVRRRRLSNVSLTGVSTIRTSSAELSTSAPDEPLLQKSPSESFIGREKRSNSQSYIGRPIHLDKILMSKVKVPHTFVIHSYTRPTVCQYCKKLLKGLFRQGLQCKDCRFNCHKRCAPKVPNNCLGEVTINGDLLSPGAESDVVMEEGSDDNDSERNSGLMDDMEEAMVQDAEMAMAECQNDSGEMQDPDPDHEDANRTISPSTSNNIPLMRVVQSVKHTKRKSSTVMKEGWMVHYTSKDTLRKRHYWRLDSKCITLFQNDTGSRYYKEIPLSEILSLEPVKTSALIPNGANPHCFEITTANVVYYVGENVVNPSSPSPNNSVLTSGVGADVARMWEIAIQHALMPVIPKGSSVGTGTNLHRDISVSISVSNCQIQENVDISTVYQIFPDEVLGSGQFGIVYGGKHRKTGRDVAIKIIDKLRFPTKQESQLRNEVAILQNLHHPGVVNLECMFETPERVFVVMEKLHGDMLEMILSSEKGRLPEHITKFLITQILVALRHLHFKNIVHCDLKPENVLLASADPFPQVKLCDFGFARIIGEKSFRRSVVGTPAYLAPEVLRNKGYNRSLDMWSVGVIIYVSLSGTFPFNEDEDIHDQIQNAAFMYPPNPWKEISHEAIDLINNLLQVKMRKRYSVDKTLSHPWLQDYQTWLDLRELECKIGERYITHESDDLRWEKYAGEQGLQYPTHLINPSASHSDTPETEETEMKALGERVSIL

[6] = molecular target: SRSF protein kinase 1 (Homo sapiens) (UniProt Q96SB4); assay: Percentage SRPK1 activity remaining in the presence of 3uM inhibitor
Chain of SRSF protein kinase 1 (Homo sapiens) (Q96SB4 whole entry): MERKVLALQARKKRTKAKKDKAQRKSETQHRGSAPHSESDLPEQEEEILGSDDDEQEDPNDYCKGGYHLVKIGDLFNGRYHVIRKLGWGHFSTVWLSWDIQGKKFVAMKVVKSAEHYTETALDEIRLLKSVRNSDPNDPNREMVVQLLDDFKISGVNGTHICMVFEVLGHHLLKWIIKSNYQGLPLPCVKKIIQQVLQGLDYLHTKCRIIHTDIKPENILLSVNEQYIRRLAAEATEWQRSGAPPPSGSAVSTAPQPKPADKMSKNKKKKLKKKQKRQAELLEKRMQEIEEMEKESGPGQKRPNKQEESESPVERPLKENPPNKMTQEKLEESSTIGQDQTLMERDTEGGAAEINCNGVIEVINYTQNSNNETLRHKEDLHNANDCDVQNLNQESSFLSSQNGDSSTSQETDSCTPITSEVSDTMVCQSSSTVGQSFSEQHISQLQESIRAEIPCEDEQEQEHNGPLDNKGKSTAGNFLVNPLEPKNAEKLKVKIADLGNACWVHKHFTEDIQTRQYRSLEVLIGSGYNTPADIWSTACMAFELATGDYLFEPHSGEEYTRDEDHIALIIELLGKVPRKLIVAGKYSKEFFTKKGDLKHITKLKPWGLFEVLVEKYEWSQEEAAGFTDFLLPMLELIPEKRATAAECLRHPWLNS

Activity [1] [%] | Activity [2] [%] | Activity [3] [%] | Activity [4] [%] | Activity [5] [%] | Activity [6] [%] | SMILES
83 | 73 | – | – | – | – | Cn1cc(C2=C(c3ccc(Cl)cc3Cl)C(=O)NC2=O)c2ccccc21
– | – | 95 | 92 | 83 | 85 | Cc1ccc(-c2c(C(=O)CF)n(CCCO)c3ncnc(N)c23)cc1
